Assay results: publication PMC3315833 (Tetrahedron, 2012)

Key:
[1] = Structural stability in DMSO-d6; assay type: physicochemical
[2] = tested on: HT-29 colon cancer cells; test: Cytotoxicity against HT-29 cells; details: read-out: IC50, cytotoxicity against HT-29 cells
[3] = tested on: MCF-7 breast cancer cells; test: Cytotoxicity against MCF-7 cells; details: read-out: IC50, cytotoxicity against MCF-7 cells

| Compound | structural stability in DMSO-d6 [1] | IC50 [2] [µM] | IC50 [3] [µM] |
| --- | --- | --- | --- |
| C=C[C@]1(C)CCc2cc(C)c3[nH]c4ccccc4c3c2[C@@H]1C#N (relative stereo) [Compound 4, deschloro 12-epi-fischerindole W nitrile] | structurally unstable |  |  |
| C=C[C@]1(C)CC[C@H]2C(=C1C#N)c1c([nH]c3ccccc13)C2(C)C (relative stereo) [Compound 2, deschloro 12-epi-fischerindole I nitrile] |  | 23 | > 40 |
| C=C[C@]1(C)[C@H](Cl)Cc2cc(C)c3[nH]c4ccccc4c3c2[C@@H]1C#N (relative stereo) [Compound 3, 12-epi-fischerindole W nitrile] | structurally unstable |  |  |
